{"source": "paper PMC4694998", "about": "“Suppression of β-catenin/TCF transcriptional activity and colon tumor cell growth by dual inhibition of PDE5 and 10” (Oncotarget, 2015)", "key": {"[1]": {"target": "T1, purified ovine COX-2 (Ovis aries, UniProt P79208)", "T1 construct": "purchased Cayman", "T1 sequence (P79208 17-603)": "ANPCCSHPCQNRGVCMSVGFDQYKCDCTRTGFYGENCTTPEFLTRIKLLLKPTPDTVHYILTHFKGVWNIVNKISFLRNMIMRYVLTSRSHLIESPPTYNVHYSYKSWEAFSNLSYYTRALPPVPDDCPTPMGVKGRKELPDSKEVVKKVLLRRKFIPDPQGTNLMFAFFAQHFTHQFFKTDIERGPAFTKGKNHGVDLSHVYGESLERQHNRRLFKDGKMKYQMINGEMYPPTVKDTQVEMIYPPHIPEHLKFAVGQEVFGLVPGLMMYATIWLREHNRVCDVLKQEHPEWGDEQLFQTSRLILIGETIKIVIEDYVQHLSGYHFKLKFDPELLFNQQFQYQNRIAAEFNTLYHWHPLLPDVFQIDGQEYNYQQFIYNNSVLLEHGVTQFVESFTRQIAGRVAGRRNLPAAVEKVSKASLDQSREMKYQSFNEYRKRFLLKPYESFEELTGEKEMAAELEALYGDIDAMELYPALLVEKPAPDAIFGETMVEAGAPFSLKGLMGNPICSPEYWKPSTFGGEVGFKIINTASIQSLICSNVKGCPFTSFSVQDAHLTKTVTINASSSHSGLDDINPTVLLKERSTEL", "test": "COX-2 colorimetric assay", "assay_type": "biochemical", "protocol": "COX-1 and COX-2 activities were measured using purified ovine COX-1 and COX-2 with colorimetric assay kits obtained from Cayman as previously reported. The activities of COX-1 and COX-2 were measured after the addition of arachidonic acid and incubation at 25°C for 5 min by absorbance at 590 nm as specified by the manufacturer.\n(§1) The IC50 values were determined as described previously. All experiments were repeated a minimum of three times to determine the reproducibility of the results. All error bars represent standard error of the mean (SEM). Statistical analysis of differences between samples was performed using the Student’s t-test. A P value of < 0.05 was considered statistically significant."}, "[2]": {"target": "T2, PDE5 (Homo sapiens, UniProt O76074)", "T2 construct": "purchased BPS Biosciences", "test": "IMAP fluorescence polarization PDE assay, recombinant PDE5", "assay_type": "biochemical", "conditions": "recombinant enzyme", "protocol": "(§2) Recombinant PDE isozymes were purchased from BPS Biosciences. The PDE10 antibody was purchased from GeneTex, while the PDE5 antibody was purchased from Cell Signaling Technologies. Non-targeting control siRNA and PDE10 specific siRNAs were purchased from Qiagen. RNAiMAX transfection reagent was purchased from Invitrogen. DMSO was used as vehicle for all compounds unless otherwise noted. All other reagents were purchased from Sigma.\n(§3) PDE activity was measured using the IMAP fluorescence polarization (FP) PDE assay (Molecular Devices) in which binding of hydrolyzed fluorescent cyclic nucleotide substrate to the IMAP reagent increases FP as described previously.\nas §1"}, "[3]": {"target": "T3, PDE10 (Homo sapiens, UniProt Q9Y233)", "T3 construct": "purchased BPS Biosciences", "T3 sequence (Q9Y233 267-1055)": "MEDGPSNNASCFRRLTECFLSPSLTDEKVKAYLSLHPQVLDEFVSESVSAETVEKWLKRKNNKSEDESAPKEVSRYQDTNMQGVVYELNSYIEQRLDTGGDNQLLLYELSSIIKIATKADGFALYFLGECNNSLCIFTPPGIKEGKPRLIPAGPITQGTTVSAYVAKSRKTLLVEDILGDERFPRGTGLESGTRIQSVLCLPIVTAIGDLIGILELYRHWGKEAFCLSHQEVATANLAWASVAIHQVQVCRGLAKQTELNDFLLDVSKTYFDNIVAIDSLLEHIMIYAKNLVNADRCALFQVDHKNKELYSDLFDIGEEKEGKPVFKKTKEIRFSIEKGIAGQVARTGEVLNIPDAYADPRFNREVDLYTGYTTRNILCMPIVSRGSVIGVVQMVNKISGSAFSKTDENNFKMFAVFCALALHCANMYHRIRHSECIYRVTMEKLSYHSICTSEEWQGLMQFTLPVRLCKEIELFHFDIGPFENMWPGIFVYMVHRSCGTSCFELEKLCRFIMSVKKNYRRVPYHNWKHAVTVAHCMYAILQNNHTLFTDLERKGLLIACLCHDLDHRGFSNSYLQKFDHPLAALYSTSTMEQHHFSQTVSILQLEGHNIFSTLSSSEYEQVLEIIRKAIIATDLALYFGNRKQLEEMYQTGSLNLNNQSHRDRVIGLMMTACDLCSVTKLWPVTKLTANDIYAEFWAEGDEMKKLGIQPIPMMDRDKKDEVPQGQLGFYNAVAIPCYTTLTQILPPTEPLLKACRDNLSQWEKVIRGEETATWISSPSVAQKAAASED", "test": "IMAP fluorescence polarization PDE assay, recombinant PDE10", "assay_type": "biochemical", "conditions": "recombinant enzyme", "protocol": "as §2, §3, §1"}, "[4]": {"test_system": "HT29 colon tumor cells", "test": "Growth assay (Cell Titer Glo), HT29", "assay_type": "cell-based", "conditions": "Homo sapiens, HT-29; 72 hours of treatment; read-out: HT29 growth IC50", "protocol": "(§4) Human colon tumor cell lines, HCT116, HT29, SW480 and Caco-2 were obtained from the American Type Culture Collection (ATCC) and grown under standard cell culture conditions in RPMI 1640 medium containing 5% serum at 37°C in a humidified atmosphere with 5% CO2. The human colonocyte line, NCM460, that is derived from normal human colon mucosa was obtained from INCELL and grown in INCELL’s enriched M3:10 medium with 10% serum as recommended by supplier. All cell lines were expanded upon delivery, and numerous aliquots of low passage cells were preserved in liquid N2. Cells were passaged no longer than 2 months. Tumor cell lines obtained from ATCC were characterized by STR profiling as performed by ATCC. The NCM460 line was characterized by INCELL as described previously (e.g. tumorigenicity testing). No additional re-authentication of the cell lines was performed except for experimental reasons (e.g. confirmation of cell doubling time, morphology, sensitivity to SS, PDE5/10 expression levels, etc).\n(§5) Cells were plated in 96-well microtiter plates at a density of 5,000 cells per well. For drug treatment, cells were treated with compound or vehicle, and incubated at 37°C for 72 hours. All growth assays were performed in 5% serum unless otherwise noted. Deionized water was used as vehicle control for papaverine. For siRNA assays, cells were transfected with siRNA under the same condition described above. The effect of treatment on cell growth was measured using the Cell Titer Glo Assay as specified by the manufacturer (Promega).\nas §1"}, "[5]": {"test_system": "NCM460 normal colonocytes", "test": "Growth assay (Cell Titer Glo), NCM460 normal colonocytes", "assay_type": "cell-based, human", "protocol": "as §4, §5, §1"}, "[6]": {"test_system": "intracellular cGMP in normal colonocytes", "test": "cGMP assay (EIA), colonocytes", "assay_type": "cell-based, human", "conditions": "45 min of treatment", "protocol": "Cells were plated at a density of 1 × 10^6 cells per 10 cm tissue culture dish, incubated for 48 hours, and treated with ADT-094 or vehicle control. After 45 min of treatment, cells were lysed and assayed for cGMP content using the cGMP Direct Biotrak EIA kit (GE Healthcare Life Sciences). The assay was done according to the manufacturer’s specifications."}, "[7]": {"test_system": "PKG activity (phospho-Ser239 VASP) in HCT116 colon tumor cells", "test": "Western blotting of VASP phosphorylation, HCT116", "assay_type": "cell-based, human", "protocol": "(§6) Western blotting was performed as described previously. Cells were treated with ADT-094 or vehicle for 8 hours before cell lysates were collected."}, "[8]": {"test_system": "PKG/PKA activity (VASP Ser239/Ser157) in Caco-2 colon tumor cells", "test": "Western blotting of VASP phosphorylation, Caco-2", "assay_type": "cell-based, human", "protocol": "as §6"}, "[9]": {"test_system": "β-catenin signaling in HCT116 colon tumor cells", "test": "Western blotting of β-catenin, cyclin D1, survivin, HCT116", "assay_type": "cell-based, human", "protocol": "as §6"}, "[10]": {"test_system": "β-catenin signaling in Caco-2 colon tumor cells", "test": "Western blotting of β-catenin, cyclin D1, survivin, Caco-2", "assay_type": "cell-based, human", "protocol": "as §6"}, "[11]": {"test_system": "β-catenin/TCF transcriptional activity in SW480 cells", "test": "TOP-FLASH luciferase reporter assay, SW480", "assay_type": "cell-based, human", "conditions": "SW480, 24 hours of treatment", "protocol": "Cells were seeded at a density of 5 × 10^4 cells per well in 24-well tissue culture plates and incubated overnight at 37°C. Cells were transiently transfected with 0.1 μg TOP-FLASH constructs (Millipore) and 0.1 μg β-galactosidase-expressing vector (Promega). After 24 hours of transfection, cells were treated with ADT-094 or vehicle for 24 hours. At the end of treatment, cells were lysed and both luciferase and β-galactosidase activities were measured using kits from Promega. All luciferase activity was normalized to β-galactosidase activity."}}, "data": [{"smiles": "COc1ccc2c(c1)C(CC(=O)NCc1ccco1)=C(C)/C2=C/c1cc(OC)c(OC)c(OC)c1", "note": "[ADT-094, (Z)-N-(furan-2-ylmethyl)-2-(5-methoxy-2-methyl-1-(3,4,5-trimethoxybenzylidene)-1H-inden-3-yl) acetamide]", "values": [{"measurement": "IC50", "setting": "[1]; Figure 3A", "result": 145, "unit": "µM"}, {"measurement": "COX-2 inhibitory activity", "setting": "[1]; in words", "result": "essentially lacks"}, {"measurement": "IC50", "setting": "[2]", "result": 2400, "unit": "nM"}, {"measurement": "IC50", "setting": "[3]", "result": 500, "unit": "nM"}, {"measurement": "IC50", "setting": "[4]", "result": 100, "unit": "nM"}, {"measurement": "IC50", "setting": "[5]; Homo sapiens, NCM460, Figure 3C, luciferase-based ATP assay, 72 hours, read-out: NCM460 growth IC50", "result": "> 10", "unit": "µM"}, {"measurement": "growth of normal colonocytes (tumor cell selectivity)", "setting": "[5]; in words", "result": "essentially refractory to treatment"}, {"measurement": "intracellular cGMP levels", "setting": "[6]", "result": "did not significantly affect"}, {"measurement": "phospho-Ser239 VASP levels (PKG activity)", "setting": "[7]", "result": "increased"}, {"measurement": "VASP phosphorylation at Ser239", "setting": "[8]; Caco-2", "result": "Dose-dependent increases"}, {"measurement": "PKA activity (VASP phosphorylation at Ser157)", "setting": "[8]; Caco-2, at concentrations that cause PKG activation", "result": "did not affect PKA activity"}, {"measurement": "levels of cyclin D1 and survivin", "setting": "[9]", "result": "also decreased"}, {"measurement": "β-catenin levels", "setting": "[9]", "result": "dose-dependent decrease"}, {"measurement": "levels of cyclin D1 and survivin", "setting": "[10]", "result": "also decreased"}, {"measurement": "β-catenin levels", "setting": "[10]", "result": "dose-dependent decrease"}, {"measurement": "β-catenin/TCF transcriptional activity", "setting": "[11]", "result": "significantly inhibited"}]}]}
